Where two headings read alike, the source gives them in different places.
How the values were obtained:
[1] = test system: TS-negative FSthy21 cells transfected with G52S mutant human TS cDNA; type: cell-based, mouse
[2] = test system: TS-negative FSthy21 cells transfected with L221A mutant human TS cDNA; type: cell-based, mouse; settings: AG337; L221A/clone (2) vs wild-type clone (1)
[3] = target: TS-negative FSthy21 cells transfected with I108A mutant human TS cDNA (Homo sapiens, UniProt P04818, P2L/I108A, cells depend on it); experiment: Growth inhibition assay (alamar Blue), I108A transfectants; settings: read-out: IC50 values, 7-day exposure
Sequence of TS-negative FSthy21 cells transfected with I108A mutant human TS cDNA (Homo sapiens, UniProt P04818, P2L/I108A, cells depend on it) (P04818 whole entry P2L/I108A): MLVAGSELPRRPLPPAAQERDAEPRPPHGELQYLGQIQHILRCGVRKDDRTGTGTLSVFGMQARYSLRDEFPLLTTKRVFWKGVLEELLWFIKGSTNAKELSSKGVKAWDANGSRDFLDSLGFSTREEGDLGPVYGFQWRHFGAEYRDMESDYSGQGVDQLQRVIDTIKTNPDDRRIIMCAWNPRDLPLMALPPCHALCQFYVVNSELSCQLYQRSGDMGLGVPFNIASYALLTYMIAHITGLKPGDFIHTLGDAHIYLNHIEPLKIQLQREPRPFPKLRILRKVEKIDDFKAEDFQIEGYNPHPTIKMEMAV
Protocol: (§3) The mouse TS-negative FSthy21 cells were used as the host for DNA transfections. This cell line, which is a TS-deficient derivative of mouse FM3A cells, was routinely maintained in MEM medium supplemented with 10% fetal bovine serum and 10×10^−5 M thymidine. Transfections were performed by DOTAP, using 10 μg of DNA/culture. Four days after transfection, cells were placed in selective medium, which contain no thymidine and reduced folate. Colonies having the ability to grow in the absence of thymidine were pooled and propagated as a mass culture.
(§4) Logarithmically growing suspension mouse TS-20 negative FSthy21 cells transfected with wild-type or variant human TS cDNA were seeded in 96-well plates at 1,000 cells/well in 180 μl of complete medium. […] Cell viability was measured by the alamar Blue™ assay. This method incorporates an oxidation-reduction (REDOX) indicator that both fluoresces and changes color in response to chemical reduction of growth medium resulting from cell growth. To above 96-well cultured cells, 25 μl of Alamar Blue (Alamar, Sacramento, Calif.) (10% of incubation volume) were added according to the manufacturer's instructions. The culture 96-well plates were then incubated at 37° C. for 4 hours. Viable cells induce chemical reduction of the media which results in a change in REDOX color from blue to red. The intensity of red color (and fluoresces) is proportional to the viable cells. After incubation, fluorescence is was read at 530-560 nm excitation wavelength and 590 nm emission wavelength by an automated plate reader (model EL340; Bio-Tek). Drug concentrations needed to reduce cell growth by 50% (IC50 values) were determined graphically by plotting of cell growth verses inhibitor concentration.
(§5) The effect of three antifolates and FdUrd on the growth characteristics of transfectants that stably express various TS proteins was evaluated by cytotoxicity studies. Cell growth was measured by the alamar blue assay. IC50 values were calculated as the concentration of inhibitor required to inhibit growth by 50% compared to wild-type transfected cells grown under identical conditions.

[4] = test system: TS-negative FSthy21 cells transfected with I108A mutant human TS cDNA; experiment: as above; settings: for Ratio of IC50 values for mutant/wt cells: AG337
Protocol: as §3, §4, §5

[5] = test system: TS-negative FSthy21 cells transfected with D49G mutant human TS cDNA; type: cell-based, mouse
[6] = test system: TS-negative FSthy21 cells transfected with L221S mutant human TS cDNA; type: cell-based, mouse; settings: AG337; L221S/clone (2) vs wild-type clone (1)
[7] = test system: TS-negative FSthy21 cells transfected with I108F mutant human TS cDNA; type: cell-based, mouse; settings: AG337; 1108F/clone (2) vs wild-type clone (2)
[8] = test system: HT1080 cells; experiment: AG337 sensitivity of HT1080 (colony formation); type: cell-based, human; settings: drug cytotoxicity assay
Protocol: The optimum concentration of AG337 for selection of resistant clones was determined as follows. The human fibrosarcoma HT1080 cells were seeded into 6-well plates at 100 cells per well and incubated at 37° C. with complete medium. Various concentrations of AG337 were added after 24 hours. Drug-containing medium was changed every 4 days and surviving colonies were counted after 14 days of drug treatment.

[9] = test system: mouse bone marrow cells transfected with wild type TS (TS161); experiment: CFU-GM / HPPCFU-C assay, marrow transfected with plasmid TS161; type: cell-based
Protocol: (§1) DNA into Mouse Bone Marrow Progenitor Cells Twenty micrograms of plasmid DNA (TS161 or TS175) and ten micrograms of DOTAP were diluted to 100 μl with HBS buffer and incubated at room temperature for 10 minutes. The mixture was added to 2×10^6 mouse bone marrow cells suspended in 0.5 ml of IMDM medium (in a 35 mm culture dish). After a 4 hour incubation at 37° C., 2 ml of IMDM with 30% FBS was added to each dish and the incubation was continued for 24 hours. […] Transfected cells prepared as described above were distributed into 10×35 mm dishes (3×10^5 cells in […] IMDM media/dish). […] Drug was added at the indicated concentration to each dish and the cells were cultured at 37° C. (5% CO2) for 10-14 days.

[10] = test system: TS-negative FSthy21 cells transfected with F225Y mutant human TS cDNA; type: cell-based, mouse; settings: AG337; F225Y/clone (1) vs wild-type clone (1)
[11] = test system: TS-negative FSthy21 cells transfected with K47E mutant human TS cDNA; type: cell-based, mouse; settings: AG337; K47E/clone (2) vs wild-type clone (1)
[12] = test system: TS-negative FSthy21 cells transfected with L221I mutant human TS cDNA; type: cell-based, mouse; settings: AG337; L221I/clone (1) vs wild-type clone (1)
[13] = test system: mouse bone marrow cells (N.B.M.); experiment: CFU-GM / HPPCFU-C assay, N.B.M.; type: cell-based
[14] = test system: TS-negative FSthy21 cells transfected with F225W mutant human TS cDNA; type: cell-based, mouse; settings: AG337; F225W/clone (2) vs wild-type clone (1)
[15] = test system: in situ TS activity in AG337-resistant HT1080 cell lines; experiment: Whole cell TS assay (tritium release); type: cell-based, human; settings: resistant lines HT1080/1b, 2b, 1c, 2c, 1d, 2d, 6e at minimal AG337 concentration giving no detectable TS activity in HT1080
Protocol: Resistance to TS inhibitors was evaluated using the whole cell TS assay for several AG337-resistant sublines and parental cell line HT1080 as a control. […] For the absence of TS inhibitors, cells convert 2′-[5-^3H]-deoxyuridine to dTMP, releasing ^3H2O into the medium. The rate of dTMP synthesis in the presence or absence of drug was assessed at 0, 15, 30, 40 minutes, by measurement of [3H]2O release by charcoal-TCA (trichloroacetic acid) separation of ^3H2O from nucleosides and nucleotides. Radioactivity was quantitated using a liquid scintillation counter (Beckman LS5).
The effect of AG337 on whole cell in situ TS activity was measured by the tritium release assay in HT1080 cells and several resistant cell lines with putative mutations. The cell lines HT1080/1b, HT1080/2b, HT1080/1c, HT1080/2c, HT1080/1d, HT1080/2d and HT1080/6e were resistant to AG337. […] This method provided a rapid qualitative confirmation of whether or not a cell line is resistant to AG337.

[16] = test system: TS-negative FSthy21 cells transfected with F225L mutant human TS cDNA; type: cell-based, mouse; settings: AG337; F225L/clone (3) vs wild-type clone (1)
[17] = test system: mouse bone marrow cells transfected with mutant TS (TS175); experiment: CFU-GM / HPPCFU-C assay, marrow transfected with plasmid TS175; type: cell-based
Protocol: as §1

[18] = cited from earlier work
[19] = in vivo; cited from earlier work
[20] = test system: human colon tumor cell line with Tyr33 to His33 TS; settings: cited from earlier work
[21] = test system: murine bone marrow cells infected with I108A mut-TS vector; experiment: CFU-GM assay, marrow infected with I108A mut-TS retroviral vector; type: cell-based
Text: (§2) The following tables 15-17 summarize additional proof that these mutants confer resistance to chemotherapeutic agents by increasing the number of drug resistant CFU-GM colonies formed by murine bone marrow cells infected with retroviral vectors containing these mutant TS cDNAs.

[22] = test system: Normal Bone Marrow cells; experiment: CFU-GM assay, Normal Bone Marrow (retroviral vector study); type: cell-based, murine
Text: as §2

[23] = test system: murine bone marrow cells infected with Wt TS vector; experiment: CFU-GM assay, marrow infected with Wt TS retroviral vector; type: cell-based
[24] = target: FPGS (Homo sapiens, UniProt Q05932); settings: cited from earlier work
Sequence of FPGS (Q05932 43-587, species assumed): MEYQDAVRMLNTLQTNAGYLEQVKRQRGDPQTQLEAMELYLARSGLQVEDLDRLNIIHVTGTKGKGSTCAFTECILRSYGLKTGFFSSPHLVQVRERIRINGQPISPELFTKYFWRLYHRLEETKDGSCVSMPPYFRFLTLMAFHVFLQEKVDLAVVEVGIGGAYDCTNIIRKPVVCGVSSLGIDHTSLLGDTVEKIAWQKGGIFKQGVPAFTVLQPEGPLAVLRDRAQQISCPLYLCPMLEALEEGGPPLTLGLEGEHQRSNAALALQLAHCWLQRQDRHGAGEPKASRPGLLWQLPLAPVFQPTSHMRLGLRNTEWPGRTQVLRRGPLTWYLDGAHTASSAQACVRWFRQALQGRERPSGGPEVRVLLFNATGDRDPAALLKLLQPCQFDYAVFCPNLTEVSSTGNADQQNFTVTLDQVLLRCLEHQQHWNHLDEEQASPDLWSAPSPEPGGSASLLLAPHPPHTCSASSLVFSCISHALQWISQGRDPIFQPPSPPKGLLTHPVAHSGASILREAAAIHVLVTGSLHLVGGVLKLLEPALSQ

[25] = test system: cell growth; settings: cited from earlier work
[26] = target: TS (Homo sapiens, UniProt P04818); settings: enzyme assays; cited from earlier work
Sequence of TS (P04818 whole entry): as the sequence (P04818 whole entry P2L/I108A) above, with L2P, A108I counted along it

[27] = target: TS-negative FSthy21 cells transfected with wild-type human TS cDNA (Homo sapiens, UniProt P04818, P2L, cells depend on it); experiment: Growth inhibition assay (alamar Blue), TS-negative cells transfected with wild-type human TS cDNA; type: cell-based, mouse; settings: Tomudex, 7-day exposure, read-out: IC50 values
Sequence of TS-negative FSthy21 cells transfected with wild-type human TS cDNA (P04818 whole entry P2L): as the sequence (P04818 whole entry P2L/I108A) above, with A108I counted along it

Cc1ccc2nc(N)[nH]c(=O)c2c1Sc1ccncc1 [AG337]
Ratio of IC50 values for mutant/wt cells ([1]; AG337, G52S/clone (3) vs wild-type clone (1)): 12(1)
resistance, IC50 values greater than wild-type transfectants ([1]; G52S transfectants vs wild-type transfectants): 12 fold
Ratio of IC50 values for mutant/wt cells [2]: 5.5(1)
GI50 ([3]; AG337, 1108A/clone (1) [175-1]): 30500 ± 3700 nM
GI50 ([3]; AG337, 1108A/clone (2) [175-2]): 29000 ± 2500 nM
GI50 ([3]; AG337, 1108A/clone (3) [175-3]): 76600 ± 2800 nM
Ratio of IC50 values for mutant/wt cells ([4]; 1108A/clone (1) vs wild-type clone (2)): 80(2)^2
Ratio of IC50 values for mutant/wt cells ([4]; 1108A/clone (2) vs wild-type clone (2)): 76(2)
Ratio of IC50 values for mutant/wt cells ([4]; 1108A/clone (3) vs wild-type clone (2)): 200(2)
biggest difference in IC50 values between clones ([4]; clones 175-2 and 175-3): less than 3 fold
Ratio of IC50 values for mutant/wt cells ([5]; AG337, D49G/clone (1) vs wild-type clone (1)): 40(1)
resistance, IC50 values greater than wild-type transfectants ([5]; D49G transfectants vs wild-type transfectants): 40 fold
Ratio of IC50 values for mutant/wt cells [6]: 4.5(1)
Ratio of IC50 values for mutant/wt cells [7]: 7.0(2)
IC50 [8]: 2100 nM
HPPCFU-C colonies ([9]; AG337 1 × 10^−7 M): 0
CFU-GM colonies ([9]; AG337 1 × 10^−8 M): 20
CFU-GM colonies, % in parentheses ([9]; AG337 1 × 10^−8 M): 19%
CFU-GM colonies ([9]; AG337 2 × 10^−7 M): 0
Ratio of IC50 values for mutant/wt cells [10]: 1.5(1)
Ratio of IC50 values for mutant/wt cells [11]: 5.0(1)
Ratio of IC50 values for mutant/wt cells [12]: 5.2(1)
HPPCFU-C colonies ([13]; AG337 1 × 10^−7 M): 0
CFU-GM colonies ([13]; AG337 1 × 10^−8 M): 10
CFU-GM colonies, % in parentheses ([13]; AG337 1 × 10^−8 M): 12%
CFU-GM colonies ([13]; AG337 2 × 10^−7 M): 0
Ratio of IC50 values for mutant/wt cells [14]: 1.0(1)
TS activity in whole cells [15]: not totally inhibited
Ratio of IC50 values for mutant/wt cells [16]: 1.0(1)
HPPCFU-C colonies ([17]; AG337 1 × 10^−7 M): 8
HPPCFU-C colonies, % in parentheses ([17]; AG337 1 × 10^−7 M): 6%
CFU-GM colonies ([17]; AG337 1 × 10^−8 M): 60
CFU-GM colonies, % in parentheses ([17]; AG337 1 × 10^−8 M): 42%
CFU-GM colonies ([17]; AG337 2 × 10^−7 M): 12
CFU-GM colonies, % in parentheses ([17]; AG337 2 × 10^−7 M): 8%

C#CCN(Cc1ccc2nc(N)[nH]c(=O)c2c1)c1ccc(C(=O)N[C@@H](CCC(=O)O)C(=O)O)cc1 [CB3717, N^10-propargyl-5,8-dideazafolic acid]
aqueous solubility [18]: poor
toxicity in Phase I trials [19]: severe renal and hepatic toxicity

O=c1[nH]c(=O)n([C@H]2C[C@H](O)[C@@H](COP(=O)(O)O)O2)cc1F [FdUMP, 5-fluoro-2-deoxyuridylate]
resistance conferred by Tyr33 to His33 substitution [20]: 3- to 4 fold

Cc1nc2ccc(CN(C)c3ccc(C(=O)N[C@@H](CCC(=O)O)C(=O)O)s3)cc2c(=O)[nH]1 [Tomudex, N-(5-[N-(3,4-dihydro-2-methyl-4-oxoquinazolin-6-ylmethyl)-N-methylamino-]-2-thenoyl)-L-glutamic acid]
CFU-C ([21]; Tomudex 1 × 10^−8 M): 53
CFU-C, % in parentheses ([21]; Tomudex 1 × 10^−8 M): 36%
HPPCFU-C ([21]; Tomudex 1 × 10^−8 M): 26
HPPCFU-C, % in parentheses ([21]; Tomudex 1 × 10^−8 M): 53%
CFU-C ([21]; Tomudex 2 × 10^−8 M): 25
CFU-C, % in parentheses ([21]; Tomudex 2 × 10^−8 M): 15%
GI50 ([3]; Tomudex, 1108A/clone (1) [175-1]): 97.9 ± 17.1 nM
GI50 ([3]; Tomudex, 1108A/clone (2) [175-2]): 76.8 ± 7.3 nM
GI50 ([3]; Tomudex, 1108A/clone (3) [175-3]): 174 ± 7 nM
CFU-GM colonies ([9]; tomudex 1 × 10^−8 M): 28
CFU-GM colonies, % in parentheses ([9]; tomudex 1 × 10^−8 M): 26%
HPPCFU-C colonies ([9]; tomudex 1 × 10^−8 M): 0
CFU-GM colonies ([9]; tomudex 2 × 10^−8 M): 0
CFU-C ([22]; Tomudex 1 × 10^−8 M): 16
CFU-C, % in parentheses ([22]; Tomudex 1 × 10^−8 M): 10%
HPPCFU-C ([22]; Tomudex 1 × 10^−8 M): 0
CFU-C ([22]; Tomudex 2 × 10^−8 M): 0
CFU-C ([23]; Tomudex 1 × 10^−8 M): 33
CFU-C, % in parentheses ([23]; Tomudex 1 × 10^−8 M): 20%
HPPCFU-C ([23]; Tomudex 1 × 10^−8 M): 10
HPPCFU-C, % in parentheses ([23]; Tomudex 1 × 10^−8 M): 23%
CFU-C ([23]; Tomudex 2 × 10^−8 M): 10
CFU-C, % in parentheses ([23]; Tomudex 2 × 10^−8 M): 6%
CFU-GM colonies ([13]; tomudex 1 × 10^−8 M): 14
CFU-GM colonies, % in parentheses ([13]; tomudex 1 × 10^−8 M): 17%
HPPCFU-C colonies ([13]; tomudex 1 × 10^−8 M): 0
CFU-GM colonies ([13]; tomudex 2 × 10^−8 M): 0
affinity for FPGS higher than that of CB3717 [24]: 30 times
more active in inhibiting cell growth than CB3717 [25]: 500 fold
less potent as a TS inhibitor than CB3717 [26]: 20 times
CFU-GM colonies ([17]; tomudex 1 × 10^−8 M): 64
CFU-GM colonies, % in parentheses ([17]; tomudex 1 × 10^−8 M): 44%
HPPCFU-C colonies ([17]; tomudex 1 × 10^−8 M): 9
HPPCFU-C colonies, % in parentheses ([17]; tomudex 1 × 10^−8 M): 6%
CFU-GM colonies ([17]; tomudex 2 × 10^−8 M): 14
CFU-GM colonies, % in parentheses ([17]; tomudex 2 × 10^−8 M): 10%
GI50 ([27]; wild-type/clone (1) [161-1]): 2.37 ± 0.18 nM
GI50 ([27]; wild-type/clone (2) [161-2]): 1.8 ± 0.47 nM
GI50 ([27]; wild-type/clone (3) [161-3]): 3.37 ± 0.34 nM

From patent publication US6416987B1, “Mutants of thymidylate synthase and uses thereof” (Sloan Kettering Institute for Cancer Research, priority 1997, dated 2002)
